Experimental data: patent US8945361B2, “Electrophoresis standards, methods and kits” (ProteinSimple, priority 2005, dated 2015)
Where a SMILES comes first, the peptide text is derived from it. The star is where a group is joined. 5TAMRA = CN(C)c1ccc2c(c1)Oc1cc(N(C)C)ccc1C21OC(=O)c2cc(C(=O)*)ccc21; X1 = [N-]=[N+]=Nc1c(F)c(F)c(C(=O)*)c(F)c1F

Experiments:
[1] = pI mobility standard
Excerpt: The pI of standards can be determined directly in IEF PAGE gels using a pH meter with a microprobe.

[2] = expected pKa's, net charge and pI of the Example 5 peptide; assay type: physicochemical
Excerpt: The blocks of lysine (K) and glutamic acid (E) residues contain basic and acidic ionizable groups at a variety of pKa values in keeping with the proximity effects described above. […] The approximate expected net charge on the peptide at various pH values is then as follows: pH 11, −3; pH 10, −2.5; pH 9, −1.7; pH 8, −0.8; pH 7, +0.3; pH 6, +1.2; pH 5, +2.3; pH 4, +3.2; pH 3, +4, pH 2, +4.5; pH 1, +5. […] The peptide is therefore expected to be a useful pI standard that forms a tight band under electrophoretic conditions in a pH gradient. Additional standards of desired pIs can be generated by systematically varying the number of sequential K and E residues in a set of peptides based on the above sequence.

With `C[C@H](NC(=O)CNC(=O)[C@@H](N)CCCCNC(=O)c1c(F)c(F)c(N=[N+]=[N-])c(F)c1F)C(=O)N[C@@H](CCC(=O)O)C(=O)N[C@@H](Cc1c[nH]cn1)C(=O)N[C@@H](Cc1c[nH]cn1)C(=O)N[C@@H](CCCCNC(=O)c1ccc2c(c1)C(=O)OC21c2ccc(N(C)C)cc2Oc2cc(N(C)C)ccc21)C(=O)NCC(=O)O` [H2N—K(ATFB)GAEHHK(5-TAMRA)G-OH] (H-K(X1)GAEHHK(5TAMRA)G-OH) the pI [1] was “approximately 5.45”.
For “Ac—K(ATFB) KKKKKAibAibEEEGG K(5-TAMRA)G-NH2”, the “approximate expected net charge” value ([2]; pH 1) was “~+5”, the “approximate expected net charge” value ([2]; pH 2) was “~+4.5” and the “approximate expected net charge” value ([2]; pH 3) was “~+4”. For the same molecule, the “approximate expected net charge” value ([2]; pH 4) was “~+3.2”, the “approximate expected net charge” value ([2]; pH 5) was “~+2.3” and the “approximate expected net charge” value ([2]; pH 6) was “~+1.2”. The “approximate expected net charge” value ([2]; pH 7) was “~+0.3”, the “approximate expected net charge” value ([2]; pH 8) was about −0.8 and the “approximate expected net charge” value ([2]; pH 9) was about −1.7. The “approximate expected net charge” value ([2]; pH 10) was about −2.5 and the “approximate expected net charge” value ([2]; pH 11) was about −3.
